# Tests used:
# [1] = biological target: T1, bovine multidrug resistance protein 1 (bMRP1) (Bos taurus, UniProt Q8HXQ5, DEL868-879); test: smFRET dose response of IF1 state occupancy (purified protein); also stimulates ATPase activity; assay type: binding
# T1 construct: gene ABCC1; purified WT bMRP1 with S6 peptide replacing residues 868–879 and A1 peptide after V1530, Cy3/LD655-labeled
# [2] = biological target: T2, bovine multidrug resistance protein 1 (bMRP1) (Bos taurus, UniProt Q8HXQ5); test: biochemical
# T2 construct: gene ABCC1
# T2 sequence (Q8HXQ5 whole entry): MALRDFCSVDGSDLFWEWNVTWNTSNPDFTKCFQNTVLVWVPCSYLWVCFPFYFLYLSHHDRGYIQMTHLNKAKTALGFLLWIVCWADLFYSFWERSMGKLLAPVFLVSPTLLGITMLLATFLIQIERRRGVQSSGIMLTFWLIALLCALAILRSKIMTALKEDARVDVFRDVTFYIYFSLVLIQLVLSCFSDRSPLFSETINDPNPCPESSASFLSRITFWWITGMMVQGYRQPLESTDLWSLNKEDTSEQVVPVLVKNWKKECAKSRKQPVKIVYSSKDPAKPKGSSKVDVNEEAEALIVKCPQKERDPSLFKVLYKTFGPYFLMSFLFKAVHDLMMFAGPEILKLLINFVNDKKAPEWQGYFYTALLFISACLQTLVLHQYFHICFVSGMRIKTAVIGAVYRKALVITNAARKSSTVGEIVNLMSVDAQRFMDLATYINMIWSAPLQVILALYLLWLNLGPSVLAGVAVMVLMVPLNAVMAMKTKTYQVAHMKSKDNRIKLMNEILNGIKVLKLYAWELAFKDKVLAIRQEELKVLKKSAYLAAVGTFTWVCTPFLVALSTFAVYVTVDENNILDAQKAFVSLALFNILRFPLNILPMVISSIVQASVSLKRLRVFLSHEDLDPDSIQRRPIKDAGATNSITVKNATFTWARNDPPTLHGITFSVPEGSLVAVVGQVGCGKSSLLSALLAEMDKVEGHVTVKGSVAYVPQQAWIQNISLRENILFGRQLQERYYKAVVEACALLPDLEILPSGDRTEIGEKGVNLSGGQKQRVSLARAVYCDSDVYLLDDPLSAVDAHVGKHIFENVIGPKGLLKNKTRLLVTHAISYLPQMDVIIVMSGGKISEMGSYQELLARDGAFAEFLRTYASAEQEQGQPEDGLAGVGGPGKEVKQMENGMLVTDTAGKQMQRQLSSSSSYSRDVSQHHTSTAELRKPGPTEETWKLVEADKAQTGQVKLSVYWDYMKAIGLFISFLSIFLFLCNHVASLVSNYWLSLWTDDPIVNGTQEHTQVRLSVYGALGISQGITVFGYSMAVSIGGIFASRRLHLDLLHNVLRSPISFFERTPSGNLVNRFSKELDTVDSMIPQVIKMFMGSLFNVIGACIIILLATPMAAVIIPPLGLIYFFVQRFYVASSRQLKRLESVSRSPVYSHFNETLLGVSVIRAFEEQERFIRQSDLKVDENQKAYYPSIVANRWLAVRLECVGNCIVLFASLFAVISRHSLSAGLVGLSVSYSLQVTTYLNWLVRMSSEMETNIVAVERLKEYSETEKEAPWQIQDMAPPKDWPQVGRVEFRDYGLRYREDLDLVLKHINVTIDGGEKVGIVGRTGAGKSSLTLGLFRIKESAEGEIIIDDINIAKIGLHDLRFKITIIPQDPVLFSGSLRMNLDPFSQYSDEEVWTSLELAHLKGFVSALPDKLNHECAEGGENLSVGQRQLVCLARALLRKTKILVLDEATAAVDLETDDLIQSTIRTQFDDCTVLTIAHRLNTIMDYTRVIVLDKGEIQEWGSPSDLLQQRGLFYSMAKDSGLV
# T1 sequence (Q8HXQ5 1-867, stated change not applied): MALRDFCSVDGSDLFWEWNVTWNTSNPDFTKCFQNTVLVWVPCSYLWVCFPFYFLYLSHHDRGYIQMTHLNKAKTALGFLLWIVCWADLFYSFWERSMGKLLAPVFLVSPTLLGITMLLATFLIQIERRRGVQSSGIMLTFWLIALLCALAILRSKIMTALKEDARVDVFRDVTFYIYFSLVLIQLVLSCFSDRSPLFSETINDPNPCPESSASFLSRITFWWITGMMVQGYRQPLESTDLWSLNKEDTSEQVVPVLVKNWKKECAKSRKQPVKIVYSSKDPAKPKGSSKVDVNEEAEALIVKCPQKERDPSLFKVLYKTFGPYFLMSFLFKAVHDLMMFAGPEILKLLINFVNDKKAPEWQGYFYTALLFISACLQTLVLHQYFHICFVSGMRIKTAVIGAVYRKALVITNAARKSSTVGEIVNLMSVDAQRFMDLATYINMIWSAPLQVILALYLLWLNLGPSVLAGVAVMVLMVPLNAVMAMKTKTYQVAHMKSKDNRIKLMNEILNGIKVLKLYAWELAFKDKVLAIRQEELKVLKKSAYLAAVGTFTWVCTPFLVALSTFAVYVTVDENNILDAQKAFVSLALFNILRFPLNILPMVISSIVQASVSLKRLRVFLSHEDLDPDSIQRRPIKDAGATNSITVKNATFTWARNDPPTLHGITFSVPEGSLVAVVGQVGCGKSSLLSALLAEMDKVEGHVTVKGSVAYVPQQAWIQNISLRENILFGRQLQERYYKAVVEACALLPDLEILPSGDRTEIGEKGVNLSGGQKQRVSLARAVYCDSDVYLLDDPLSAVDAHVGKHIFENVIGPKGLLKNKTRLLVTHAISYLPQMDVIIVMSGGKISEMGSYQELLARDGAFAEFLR
# T1 sequence (Q8HXQ5 880-1530, stated change not applied): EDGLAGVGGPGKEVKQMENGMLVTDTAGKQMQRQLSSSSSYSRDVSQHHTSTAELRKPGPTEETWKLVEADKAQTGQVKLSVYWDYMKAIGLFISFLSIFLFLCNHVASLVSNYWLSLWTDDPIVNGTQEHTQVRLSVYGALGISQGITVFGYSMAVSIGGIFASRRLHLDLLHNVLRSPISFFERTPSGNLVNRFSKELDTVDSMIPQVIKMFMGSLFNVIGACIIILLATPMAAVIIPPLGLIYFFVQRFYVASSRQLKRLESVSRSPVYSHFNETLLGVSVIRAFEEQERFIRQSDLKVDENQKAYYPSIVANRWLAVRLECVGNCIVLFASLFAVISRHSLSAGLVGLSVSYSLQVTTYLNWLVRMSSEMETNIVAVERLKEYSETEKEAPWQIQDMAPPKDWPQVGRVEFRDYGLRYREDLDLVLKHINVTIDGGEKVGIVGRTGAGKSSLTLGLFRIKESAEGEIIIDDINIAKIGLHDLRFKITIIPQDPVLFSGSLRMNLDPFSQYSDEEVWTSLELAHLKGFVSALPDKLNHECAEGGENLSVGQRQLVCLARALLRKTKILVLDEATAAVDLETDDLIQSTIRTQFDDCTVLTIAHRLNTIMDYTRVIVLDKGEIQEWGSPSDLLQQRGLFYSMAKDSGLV
SMILES,EC50 [1],EC50 [2]
CCCCC/C=C\C\C=C/C=C/C=C/[C@@H](SC[C@H](NC(=O)CC[C@H](N)C(=O)O)C(=O)NCC(=O)O)[C@@H](O)CCCC(=O)O [Leukotriene C4],0.32 ± 0.17 µM,–
Nc1ncnc2c1ncn2[C@@H]1O[C@H](COP(=O)(O)OP(=O)(O)OP(=O)(O)O)[C@@H](O)[C@H]1O [ATP],–,50 ± 20 µM
